Columns and labels:
Type in all cases: in vivo
Rhizoctonia solani [1] = test: Curative activity against sheath blight of rice plants (Experiment 3); set-up: key: 0 = disease as untreated, 5 = no disease (complete control); conditions: rice seedlings (variety Nihonbare), sprayed 24 hours after inoculation at 10 ppm (30 ml/3 pots), further 5 days; height of the lesions
Description: Rice seedlings (variety Nihonbare) at the 4 - 5 leaf stage were inoculated with the fungus, Rhizoctonia solani, by placing 4 - 5 oat grains on which the fungus had previously been cultured around the base of each rice seedling and keeping them in a moist chamber at 25 - 27 °C. After 24 hours, the rice seedlings were sprayed with an aqueous suspension of the test compound at a concentration of 10 ppm (30 ml/3 pots) and they then continued to be kept in the moist chamber for a further 5 days. The disease controlling index was given on the basis of the height of the lesions formed on the rice seedlings.
(§1) The compounds tested have the formula (1-1), in which Ar represents the group shown at the beginning of each part of the Table and R^1, R^2, X and Y are as defined in the Table.
(§2) The disease controlling index shown in the foregoing Tables 11 to 19 is indicated by the following codes: • 5--no disease (complete control) • 4--disease rate is less than 10% of the untreated plant • 3--disease rate is 10% - 30% of the untreated plant • 2--disease rate is 30% - 50% of the untreated plant • 1--disease rate is 50% - 70% of the untreated plant • 0--disease rate is almost same as the untreated plant.

Gibberella Fujikuroi = test: Activity against bakanae disease of rice plants by seed soaking (Experiment 5); set-up: key: 0 = disease as untreated, 5 = no disease (complete control); conditions: infected rice seeds (variety Tanginbozu) immersed 3 days in aqueous suspension (concentration not given), 3 weeks; number of diseased seedlings
Description: Ten grams of rice seeds (variety Tanginbozu), infected with Gibberella Fujikuroi, were immersed in 20 ml of an aqueous suspension of the test compound for 3 days. At the end of this time, the treated seeds were densely sown in soil in pots, and the pots were placed in a greenhouse at 20 - 30 °C for 3 weeks. The disease controlling index was given on the basis of the number of diseased seedlings.
as §1, §2

Rhizoctonia solani [2] = test: Preventive activity against sheath blight of rice plants by submerged application (Experiment 4); conditions: rice seedlings (variety Nihonbare), applied to the water in the pots, 100 g per 10 ares, inoculated after 7 days, 5 days; height of the lesions
Text: Rice seedlings (variety Nihonbare) at the 4 - 5 leaf stage grown in pots were flooded to a depth of 1 cm with water. The test compound was then applied to the water in the pots in an amount corresponding to 100 g per 10 ares. After keeping the seedlings in a greenhouse for 7 days, the water was drained from the pots and the seedlings were inoculated with the fungus, Rhizoctonia solani, by placing 4 - 5 oat grains on which the fungus had previously been cultured around the base of each seedling. The seedlings were then kept in a moist chamber for 5 days at 25 - 27 °C. The disease controlling index was given on the basis of the height of the lesions formed on the rice seedlings.
Except for Table 14F, the compounds tested have the formula (1-1), in which Ar represents the group shown at the beginning of each part of the Table and R^1, R^2, X and Y are as defined in the Table.
as §2

Pyricularia oryzae = conditions: rice seedlings (variety Sachikaze), sprayed 24 hours after inoculation at 10 ppm (30 ml/3 pots), further 6 days; number of lesions on the upper two leaves
Sphaerotheca fuliginea = test: Preventive activity against powdery mildew of cucumber (Experiment 8); conditions: cucumber seedlings sprayed at 300 ppm, inoculated after 24 hours, evaluated after 7 days in greenhouse; diseased area on third and fourth leaves
Description: Cucumber seedlings (variety Sagamihanpaku) at the 3 - 4 leaf stage were sprayed with an aqueous suspension of the test compound at a concentration of 300 ppm (30 ml/3 pots). The seedlings were then kept for 24 hours at room temperature, after which they were inoculated with conidida of Sphaerotheca fuliginea. After keeping the seedlings in a greenhouse for 7 days, the disease controlling index was evaluated on the basis of the diseased area on the third and fourth leaves.

Venturia inaequalis = test: Preventive activity against apple scab (Experiment 9); conditions: apple seedlings sprayed at 300 ppm, inoculated after 24 hours, 3 days moist chamber then 10 days greenhouse; diseased area on third and fourth leaves
Description: Apple seedlings at the 3 - 4 leaf stage were sprayed with an aqueous suspension of the test compound at a concentration of 300 ppm (30 ml/3 pots). The seedlings were then kept for 24 hours at room temperature, after which they were inoculated with the fungus, Venturia inaequalis, by spraying a spore suspension of the fungus over the seedlings. After inoculation, the seedlings were kept in a moist chamber for 3 days at 20 - 22 °C and then moved to a greenhouse at 20 - 22°C for 10 days. The disease controlling index was given on the basis of the diseased area on the third and fourth leaves.

Rhizoctonia solani [3] = test: Preventive activity against sheath blight of rice plants (Experiment 2); set-up: key: 0 = disease as untreated, 5 = no disease (complete control); conditions: rice seedlings (variety Nihonbare), sprayed at 100 ppm (30 ml/3 pots) 24 hours before inoculation, 5 days; height of the lesions
Description: Rice seedlings (variety Nihonbare) at the 4 - 5 leaf stage were sprayed with an aqueous suspension of the test compound at a concentration of 100 ppm (30 ml/3 pots). The seedlings were then kept for 24 hours at room temperature, after which they were inoculated with the fungus, Rhizoctonia solani, by placing 4 - 5 oat grains on which the fungus had previously been cultured around the base of each seedling. The seedlings were then kept in a moist chamber for 5 days at 25 - 27 °C. The disease controlling index was given on the basis of the height of the lesions formed on the rice seedlings.
Except in Table 12G, the compounds tested have the formula (1-1), in which Ar represents the group shown at the beginning of each part of the Table and R^1, R^2, X and Y are as defined in the Table.
as §2

Puccinia recondita = test: Curative activity against leaf rust of wheat (Experiment 6); conditions: wheat seedlings (variety Norin No 61), sprayed after inoculation at 3 ppm (30 ml/3 pots), 10 days; diseased area on the first leaf
Description: Wheat seedlings (variety Norin No 61) at the first leaf stage were inoculated with the fungus, Puccinia recondita, by spraying them with a spore suspension of the fungus. They were then kept in a moist chamber for 24 hours at 20 - 22 °C, after which they were moved to a greenhouse at 15 - 20 °C. […] The seedlings were then continuously kept in the greenhouse for 10 days. The disease controlling index was given on the basis of diseased area on the first leaf.

Candida albicans = test: ED50 in mice infected with Candida albicans, oral treatment (Experiment 11); conditions: 360 h, treated orally, fifteen days after infection
Description: Groups of mice (each group contained 10 mice) were inoculated with 7 to 9 x 10^6 spores per mouse of Candida albicans. 1, 4, and 24 hours after the inoculation, each mouse was orally administered 20 mg/kg of the test compound each time. The anti-fungal activity was assessed by the survival rate 9 days after infection. The survival rate was recorded as 0% 2 days after infection in an untreated (control) group. […] Following essentially the same procedure as that described in Experiment 10, mice were infected with Candida albicans, and treated orally with various compounds of the invention, as shown in the following Table 21. Fifteen days after infection (or fourteen days in the case of the compounds of Example Nos. 5 and 10), ED50 values were determined and are reported in the following Table 21.

[4] = system: Erysiphe graminis f.sp. hordei; test: Curative activity against powdery mildew of barley (Experiment 7); conditions: barley seedlings (variety Sekishinriki), sprayed one day after inoculation at 3 ppm (30 ml/3 pots), further 10 days; diseased area on the first leaf
Description: Barley seedlings (variety […]) at the first leaf stage were inoculated with conidia of Erysiphe graminis f.sp. hordei and kept in a greenhouse at 15 - 20°C. After one day, the seedlings were sprayed with an aqueous suspension of the test compound at a concentration of 3 ppm (30 ml/3 pots), and they continued to be kept in the greenhouse at that temperature for a further 10 days. The disease controlling index was given on the basis of the diseased area on the first leaf.

Row | SMILES | disease controlling index (Rhizoctonia solani [1]) | disease controlling index (Gibberella Fujikuroi) | disease controlling index (Rhizoctonia solani [2]) | disease controlling index (Pyricularia oryzae) | Index (disease controlling index) (Sphaerotheca fuliginea) | Index (disease controlling index) (Venturia inaequalis) | disease controlling index (Rhizoctonia solani [3]) | disease controlling index (Puccinia recondita) | ED50 (Candida albicans) [mg/kg] | disease controlling index [4]
1 | C[C@@H](N=[N+]=[N-])[C@](O)(Cn1cncn1)c1ccc(F)cc1F [Example 99, (2R, 3R)-3-Azido-2-(2,4-difluorophenyl)-1-(1H-1,2,4-triazol-1-yl)-2-butanol] | 5 | 5 | 4 (disease rate is less than 10% of the untreated plant) | 5 | 5 | 5 |  |  |  | 
2 | C[C@@H](CCN=[N+]=[N-])[C@](O)(Cn1cncn1)c1ccc(F)cc1F (relative stereo) [Example 81, (2R*, 3S*)-5-Azido-2-(2,4-difluorophenyl)-3-methyl-1-(1H-1,2,4-triazol-1-yl)-2-pentanol] | 5 | 5 | 4 (disease rate is less than 10% of the untreated plant) | 5 |  |  | 5 | 5 |  | 
3 | C[C@@H](NC(=O)c1ccc(C(F)(F)F)cc1)[C@](O)(Cn1cncn1)c1ccc(Cl)cc1 [Example 103, (2R, 3R)-2-(4-Chlorophenyl)-1-(1H-1,2,4-triazol-1-yl)-3-[(4-trifluoromethyl)benzoylamino]-2-butanol] |  |  |  |  |  |  |  |  | 0.48 | 
4 | C[C@@H](N=[N+]=[N-])[C@](O)(Cn1cncn1)c1ccc(Cl)cc1Cl (relative stereo) [Example 2, (2R*, 3R*)-3-Azido-2-(2,4-dichlorophenyl)-l-(lH-1,2,4-triazol-1-yl)-2-butanol] | 5 |  | 5 | 4 (disease rate is less than 10% of the untreated plant) | 5 | 5 |  | 5 |  | 
5 | CC(N=[N+]=[N-])[C@H](C)[C@](O)(Cn1cncn1)c1ccc(F)cc1F (single isomer, unassigned) [83 (oxalate, C-4 isomer 2), (2R*, 3S*)-4-Azido-2-(2,4-difluorophenyl)-3-methyl-1-(1H-1,2,4-triazol-1-yl)-2-pentanol] | 5 | 5 | 4 (disease rate is less than 10% of the untreated plant) | 5 | 5 | 5 | 5 | 5 |  | 5
6 | CC(=O)N1CCN(c2ccc(OCC3COC(Cn4ccnc4)(c4ccc(Cl)cc4Cl)O3)cc2)CC1 (centres unmarked) [ketoconazole, reference compound] |  |  |  |  |  |  |  |  | 31.4 | 
7 | CC(N=[N+]=[N-])[C@H](C)[C@](O)(Cn1cncn1)c1ccc(F)cc1F (single isomer, unassigned) [83 (C-4 isomer 1), (2R*, 3S*)-4-Azido-2-(2,4-difluorophenyl)-3-methyl-1-(1H-1,2,4-triazol-1-yl)-2-pentanol] | 5 | 5 | 5 | 5 | 5 | 5 | 5 | 5 |  | 5
8 | C[C@@H](NC(=O)c1ccc(C#N)cc1)[C@](O)(Cn1cncn1)c1ccc(F)cc1F [Example 67] | 4 (disease rate is less than 10% of the untreated plant) |  |  |  | 5 |  | 4 (disease rate is less than 10% of the untreated plant) | 4 (disease rate is less than 10% of the untreated plant) | 1.25 | 4 (disease rate is less than 10% of the untreated plant)
